Data: patent publication US20230382869A1, “Phenyl-3,4-dihydroisoquinolin-2(1h)-yl-ethan-1-one derivatives as dopamine d1receptor positive allosteric modulators” (Eli Lilly and Company, priority 2020, published 2023)

Molecular target: human D1 receptor (Homo sapiens (Human), UniProt P21728)
Assay: Human D1 Receptor PAM Assay (cAMP HTRF, potentiator mode)
Type: cell-based
Conditions: for EC50: HEK293 cells expressing human D1, with EC20 dopamine (12 nM final), cAMP, read-out: Abs EC50; for % Top (% Potentiation): fitted top, 0% = EC20 dopamine alone, 100% = 5 μM dopamine
Text: The PAM activity of the compounds of the present invention may be measured essentially as described in Svensson et al., An Allosteric Potentiator of the Dopamine D1 Receptor Increases Locomotor Activity in Human D1 Knock-in Mices without Casusing Stereotypy or Tachyphylaxis. J. Pharmacol. Exp. Ther. (2017) 360:117-128.
More specifically, HEK293 cells that stably express the human D1 receptor (Accession number NM_000794) are generated by gene transduction using the pBABE-bleo retroviral vector and selected with Zeocin™ (InvivoGen). At approximately 80% confluency, the cells are harvested using TrypLE™ Express (Gibco), suspended in FBS plus 8% DMSO, and stored in liquid nitrogen. On the day of the assay, cells are thawed and resuspended in STIM buffer (Hanks Balanced Salt Solution supplemented with 0.1% BSA, 20 mM HEPES, 500 μM IBMX, and 100 μM ascorbic acid).
Test compound is serially diluted (1:2) with DMSO into assay plates (ProxiPlate-384 Plus, PerkinElmer) using acoustic dispensing (Labcyte) to provide 20 concentrations for full response curves. Test compound (80 nL) is added to 5 μL STIM buffer containing 2000 cells, and 5 μL of a 2×concentration dopamine solution in STIM buffer that will generate an EC20 level response (24 nM in stock solution, or 12 nM final) and a final DMSO concentration in the well of 0.8%. Plates are incubated at room temperature for a total reaction time of 60 min.
cAMP production is quantified using HTRF® detection (Cisbio) according to the manufacturer's instructions. Generally, lysis buffer containing anti-cAMP cryptate (5 μL) and D2-conjugate (from HTRF® kit)(5 μL) is added to the wells, plates are incubated for an additional 60-90 min, and the time-resolved fluorescence is detected using an EnVision™ plate reader (PerkinElmer). Fluorescence data is converted to cAMP concentrations using a cAMP standard curve and analyzing using a 4-parameter non-linear logistic equation (Genedata Screener, version 13.0.5-standard). For potentiator mode concentration-response curves, results are expressed as percent of the window between a response at EC20 concentration of dopamine alone (normalized to 0%) and the maximum response to dopamine (defined by response to 5 μM dopamine, final concentration, normalized as 100%). Absolute EC50 values are calculated based on the maximum and minimum responses of the control agonist (dopamine). The % Potentiation (% Top) is determined from the fitted top of the concentration response curve.

human D1 receptor, sequence (P21728 whole entry): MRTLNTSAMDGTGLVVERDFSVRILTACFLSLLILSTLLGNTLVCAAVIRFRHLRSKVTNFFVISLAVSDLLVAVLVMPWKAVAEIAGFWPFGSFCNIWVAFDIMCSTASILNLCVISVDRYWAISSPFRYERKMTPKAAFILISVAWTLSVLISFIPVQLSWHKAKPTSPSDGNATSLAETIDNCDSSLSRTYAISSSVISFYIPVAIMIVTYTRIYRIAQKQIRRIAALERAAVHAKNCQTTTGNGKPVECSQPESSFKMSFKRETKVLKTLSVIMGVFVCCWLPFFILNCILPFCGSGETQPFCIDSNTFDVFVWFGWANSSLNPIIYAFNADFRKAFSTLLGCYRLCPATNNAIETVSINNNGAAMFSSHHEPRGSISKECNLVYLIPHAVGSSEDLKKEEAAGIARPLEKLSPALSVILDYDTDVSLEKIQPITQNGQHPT

Compound | EC50 | % Top (% Potentiation)
C[C@H]1c2cccc([C@@H]3C[C@@H]3C(C)(C)O)c2C[C@H](CO)N1C(=O)Cc1c(Cl)cccc1Cl (relative stereo) [Example 4, 2-(2,6-Dichlorophenyl)-1-[(1S,3R)-3-(hydroxymethyl)-5-[cis-2-(1-hydroxy-1-methyl-ethyl)cyclopropyl]-1-methyl-3,4-dihydro-1H-isoquinolin-2-yl]ethenone] | 86.7 nM | 93.2%
C[C@H]1c2ccc(F)c([C@@H]3C[C@H]3C(C)(C)O)c2C[C@H](CO)N1C(=O)Cc1c(Cl)cccc1Cl (relative stereo) [Example 11, 2-(2,6-dichlorophenyl)-1-[(1S,3R)-6-fluoro-3-(hydroxymethyl)-5-[trans-(1-hydroxy-1-methyl-ethyl)cyclopropyl]-1-methyl-3,4-dihydro-1H-isoquinolin-2-yl]ethenone] | 5.19 nM | 92.7%
C[C@@H]1c2ccc(F)c([C@@H]3C[C@H]3C(C)(C)O)c2C[C@H](CO)N1C(=O)Cc1c(F)cccc1Cl (relative stereo) [Example 9, 2-(2-chloro-6-fluoro-phenyl)-1-[(1R,3R)-6-fluoro-3-(hydroxymethyl)-5-[trans-2-(1-hydroxy-1-methyl-ethyl)cyclopropyl]-1-methyl-3,4-dihydro-1H-isoquinolin-2-yl]ethenone] | 13.2 nM | 82.0%
C[C@H]1c2ccc(F)c([C@@H]3C[C@H]3C(C)(C)O)c2C[C@H](CO)N1C(=O)Cc1c(Cl)cccc1Cl (relative stereo) [Example 10, 2-(2,6-dichlorophenyl)-1-[(1S,3R)-6-fluoro-3-(hydroxymethyl)-5-[trans-(1-hydroxy-1-methyl-ethyl)cyclopropyl]-1-methyl-3,4-dihydro-1H-isoquinolin-2-yl]ethenone] | 12.3 nM | 86.9%
C[C@H]1c2cccc([C@@H]3C[C@H]3C(C)(C)O)c2C[C@H](CO)N1C(=O)Cc1c(Cl)cccc1Cl (relative stereo) [Example 2, 2-(2,6-Dichlorophenyl)-1-[(1S,3R)-3-(hydroxymethyl)-5-[trans-2-(1-hydroxy-1-methyl-ethyl)cyclopropyl]-1-methyl-3,4-dihydro-1H-isoquinolin-2-yl]ethenone] | 8.28 nM | 96.4%

The remaining compounds from weak to strong by EC50, led by results:

EC50 | % Top (% Potentiation) | Compound
33.6 nM | 78.9% | C[C@@H]1c2ccc(F)c([C@@H]3C[C@H]3C(C)(C)O)c2C[C@H](CO)N1C(=O)Cc1c(F)cccc1Cl (relative stereo) [Example 8, 2-(2-chloro-6-fluoro-phenyl)-1-[(1R,3R)-6-fluoro-3-(hydroxymethyl)-5-[trans-2-(1-hydroxy-1-methyl-ethyl)cyclopropyl]-1-methyl-3,4-dihydro-1H-isoquinolin-2-yl]ethenone]
12.7 nM | 97.0% | 2-(2,6-Dichlorophenyl)-1-[(1S,3R)-5-[4,4-difluoro-3-hydroxy-3-methyl-butyl]-3-(hydroxymethyl)-1-methyl-3,4-dihydro-1H-isoquinolin-2-yl]ethenone [Example 6]
12.1 nM | 94.2% | C[C@H]1c2cccc([C@@H]3C[C@H]3C(C)(C)O)c2C[C@H](CO)N1C(=O)Cc1c(Cl)cccc1Cl (relative stereo) [Example 1, 2-(2,6-Dichlorophenyl)-1-[(1S,3R)-3-(hydroxymethyl)-5-[trans-2-(1-hydroxy-1-methyl-ethyl)cyclopropyl]-1-methyl-3,4-dihydro-1H-isoquinolin-2-yl]ethenone]
11.2 nM | 91.9% | C[C@H]1c2cccc([C@@H]3C[C@@H]3C(C)(C)O)c2C[C@H](CO)N1C(=O)Cc1c(Cl)cccc1Cl (relative stereo) [Example 3, 2-(2,6-Dichlorophenyl)-1-[(1S,3R)-3-(hydroxymethyl)-5-[cis-2-(1-hydroxy-1-methyl-ethyl)cyclopropyl]-1-methyl-3,4-dihydro-1H-isoquinolin-2-yl]ethenone]
7.96 nM | 101% | 2-(2,6-Dichlorophenyl)-1-[(1S,3R)-5-[4,4-difluoro-3-hydroxy-3-methyl-butyl]-3-(hydroxymethyl)-1-methyl-3,4-dihydro-1H-isoquinolin-2-yl]ethenone [Example 5]
